Values of other authors, collected in US8067434B2, “Compounds and methods for development of Ret modulators” (Plexxikon Inc., priority 2003, dated 2011).

Experiments:
[1] = system: Ret; settings: DAergic neuron cultures
[2] = system: TT cells, with RetC634 mutant; settings: TT cells in RPMI medium, varying concentrations
[3] = system: Ret kinase; settings: incubation with the inhibitor
[4] = system: Ret transformed NIH3T3; settings: Ret transformed NIH3T3, treatment with inhibitor

| Compound | cell growth [2] | also measured |
| --- | --- | --- |
| C[C@]12O[C@H](C[C@]1(O)C(=O)O)n1c3ccccc3c3c4c(c5c6ccccc6n2c5c31)CNC4=O [Compound K-252b, K-252b] | – | normal functioning of Ret in GDNF-induced differentiation [1]: inhibited |
| Cc1ccc(NC(=O)c2ccc(CN3CCN(C)CC3)cc2)cc1Nc1nccc(-c2cccnc2)n1 [STI571] | inhibiting cell growth | – |
| C=CCNC1=C2C[C@@H](C)C[C@H](OC)[C@H](O)[C@@H](C)/C=C(\C)[C@H](OC(N)=O)[C@@H](OC)/C=C\C=C(/C)C(=O)NC(=CC1=O)C2=O [allyl-geldanamycin] | inhibiting cell growth | – |
| O=c1c(-c2ccc(O)cc2)coc2cc(O)cc(O)c12 [genistein] | inhibiting cell growth | – |
| CO[C@H]1[C@@H](OC)C[C@H](C)[C@@H](OC)C2=CC(=O)C=C(NC(=O)/C(C)=C/C=C\[C@H](OC)[C@@H](OC(N)=O)/C(C)=C/[C@@H]1C)C2=O [herbimycin A] | – | intracellular Ret kinase activity [3]: decreased; cellular phenotype [4]: reverted the cellular phenotype to a more untransformed flat morphology |
